In patent US10596166B2, “Combination composition comprising huperzine” (priority 2015, dated 2020):

Test system: primary cortical neurons injured by glutamate
Assay: glutamate toxicity on primary cortical neurons (neuron survival, neurite network)
Assay type: cell-based, rat
Details: for effect on glutamate toxicity: at the lowest concentrations; for non-active concentration: see example 2
Method: Rat cortical neurons were cultured as described by Singer et al., 1999 [J. Neuroscience 19(7), 2455-2463] and Callizot et al. 2013 [J. Neurosc. Res. 91(5), 706-716].
Briefly, pregnant females (Wistar; JanvierLabs, St Berthevin, France) at 15 days of gestation were killed by cervical dislocation. Foetuses were collected and immediately placed in ice-cold L15 Leibovitz medium (Pan Biotech, Aidenbach, Germany, Batch: 4120413) with a 2% penicillin (10,000 U/ml) and streptomycin (10 mg/ml) solution (PS; Pan Biotech, Aidenbach, Germany) and 1% bovine serum albumin (BSA; Pan Biotech, Aidenbach, Germany). Cortex was treated for 20 min at 37° C. with a trypsin-EDTA (Pan Biotech, Aidenbach, Germany) solution at a final concentration of 0.05% trypsin and 0.02% EDTA. The dissociation was stopped by addition of Dulbecco's modified Eagle's medium (DMEM) with 4.5 g/liter of glucose (Pan Biotech, Aidenbach, Germany), containing DNAse I grade II (final concentration 0.5 mg/ml; Pan Biotech, Germany) and 10% fetal calf serum (FCS; Invitrogen, Cergy Pointoise, France). Cells were mechanically dissociated by three forced passages through the tip of a 10-ml pipette. Cells were then centrifuged at 515 g for 10 min at 4° C. The supernatant was discarded, and the pellet was resuspended in a defined culture medium consisting of Neurobasal medium (Invitrogen, Cergy Pointoise, France) with a 2% solution of B27 supplement (Invitrogen, Cergy Pointoise, France), 2 mmol/liter of L-glutamine (Pan Biotech, Aidenbach, Germany), 2% of PS solution, and 10 ng/ml of brain-derived neurotrophic factor (BDNF; Pan Biotech, Aidenbach, Germany). Viable cells were counted in a Neubauer cytometer, using the trypan blue exclusion test. The cells were seeded at a density of 30,000 per well in 96-well plates precoated with poly-L-lysine (Corning Biocoat, Tewksbury, USA) and were cultured at 37° C. in an air (95%)-CO2 (5%) incubator. The medium was changed every 2 days.
On day 13, the cultures were exposed for 20 minutes to glutamate 40 μM in the absence or presence of Huperzia serrata extracts. Then the cells were washed out and new fresh medium containing or not Huperzia serrata extracts was added for another 48 hours.
The cells were then fixed by a cold solution ethanol/acetic acid (95:5 v/v) for 5 minutes at −20° C. After permeabilization with 0.1% of saponin (Sigma), cells were incubated for 2 hours with mouse monoclonal antibody against microtubule-associated-protein 2 (MAP 2; Sigma) at dilution of 1/400 in PBS containing 1% foetal calf serum (Invitrogen) and 0.1% of saponin.
Neuron survival assessment: For each condition 6 wells were assessed, 20 pictures per well were taken using InCell Analyzer™ 1000 (GE Healthcare) with 20× magnification to assess cell bodies (MAP 2 staining). Analysis of picture was done using Developer software (GE Healthcare), the number of neurons per picture was recorded. A mean of neuron number of the 20 pictures was automatically calculated per well, then one data was provided per well (total of 6 raw data were provided per condition).
Neurite network length assessment: For each condition 6 wells were assessed, 20 pictures per well were taken using InCell Analyzer™ 1000 with 20× magnification (20 pictures at X20 representing ˜80% of the total well surface), to assess MAP-2 staining. Analysis of picture was done using Developer software, the total neurite length per picture was recorded. A mean neurite length of the 20 pictures was automatically calculated per well, then one data was provided per well (total of 6 raw data were provided per condition).
The protocol used in these assays is the same as described in example 1. After 13 days of neuron culture, the candidate compounds were solved in DMSO and diluted in culture medium. […]

## O=C(O)/C=C/c1ccc(O)c(O)c1 [CA, caffeic acid]
  effect on glutamate toxicity: little or no effect
Glutamate 40 μM, 20 min, 1 μM and 5 μM
  neurite network: moderate effect
Glutamate 40 μM, 20 min
  non-active concentration: 500 pM

## COc1cc(/C=C/C(=O)O)ccc1O [FA, ferulic acid]
  effect on glutamate toxicity: little or no effect
Glutamate 40 μM, 20 min, 10 μM and 100 μM
  neurite network: significant protective effect
Glutamate 40 μM, 20 min
  non-active concentration: 10000 pM

## C/C=C1\[C@H]2C=C(C)C[C@]1(N)c1ccc(=O)[nH]c1C2 [HA, huperzine A, reference compound]
  effect on glutamate toxicity: little or no effect
Glutamate 40 μM, 20 min
  lowest active dose: 1 nM
  non-active concentration: 10 pM
Glutamate 40 μM, 20 min, 10 nM
  neurite network: > 90%
  neuron survival: 94%
